Patent publication US10434135B2, “Pharmaceutical composition for preventing or treating arthritis” (Samsung Life Public Welfare Foundation, priority 2015, dated 2019)
Ends that are not written are not given here.

Details: rat, in vivo
Source text: The stained samples were examined under a fluorescence microscope (Eclipse TE2000U) at 200× magnification and photographed from 4 randomly selected areas. Then, the images with specific expressions were processed using the imageJ program and then quantified.

KLDLKLDLKLDLRPKPQQFFGLM [KLD12-SP]
substance P retained in the knee joints: retained in the knee joints of rats
